Tests used:
Type in all cases: in vivo
[1] = system: barnyardgrass (Echinochloa crus-galli); assay: Test A preemergence, barnyardgrass; conditions: 0 to 100 scale
Description: (§1) Seeds of plant species selected from barnyardgrass (Echinochloa crus-galli), kochia (Kochia scoparia), ragweed (common ragweed, Ambrosia elation), ryegrass, Italian (Italian ryegrass, Lolium multiflorum), foxtail, green (green foxtail, Setaria viridis), and pigweed (Amaranthus retroflexus) were planted into a blend of loam soil and sand and treated preemergence with a directed soil spray using test chemicals formulated in a non-phytotoxic solvent mixture which included a surfactant. At the same time, plants selected from these weed species and also wheat (Triticum aestivum), corn (Zea mays), blackgrass (Alopecurus myosuroides), and galium (catchweed bedstraw, Galium aparine) were planted in pots containing the same blend of loam soil and sand and treated with postemergence applications of test chemicals formulated in the same manner Plants ranged in height from 2 to 10 cm and were in the one- to two-leaf stage for the postemergence treatment. Treated plants and untreated controls were maintained in a greenhouse for approximately 10 d, after which time all treated plants were compared to untreated controls and visually evaluated for injury. Plant response ratings, summarized in Table A, are based on a 0 to 100 scale where 0 is no effect and 100 is complete control. A dash (—) response means no test result.

[2] = system: kochia (Kochia scoparia); assay: Test A preemergence, kochia; conditions: 0 to 100 scale
Description: as §1

[3] = system: ragweed (common ragweed, Ambrosia elation); assay: Test A preemergence, ragweed; conditions: 0 to 100 scale
Description: as §1

[4] = system: ryegrass, Italian (Italian ryegrass, Lolium multiflorum); assay: Test A preemergence, ryegrass, Italian; conditions: 0 to 100 scale
Description: as §1

[5] = system: pigweed (Amaranthus retroflexus); assay: Test A preemergence, pigweed; conditions: 0 to 100 scale
Description: as §1

[6] = system: barnyardgrass (Echinochloa crus-galli); assay: Test A postemergence, barnyardgrass; conditions: 0 to 100 scale
Description: as §1

[7] = system: kochia (Kochia scoparia); assay: Test A postemergence, kochia; conditions: 0 to 100 scale
Description: as §1

[8] = system: ragweed (common ragweed, Ambrosia elation); assay: Test A postemergence, ragweed; conditions: 0 to 100 scale
Description: as §1

[9] = system: ryegrass, Italian (Italian ryegrass, Lolium multiflorum); assay: Test A postemergence, ryegrass, Italian; conditions: 0 to 100 scale
Description: as §1

[10] = system: pigweed (Amaranthus retroflexus); assay: Test A postemergence, pigweed; conditions: 0 to 100 scale
Description: as §1

[11] = system: wheat (Triticum aestivum); assay: Test A postemergence, wheat; conditions: 0 to 100 scale
Description: as §1

[12] = system: corn (Zea mays); assay: Test A postemergence, corn; conditions: 0 to 100 scale
Description: as §1

[13] = system: blackgrass (Alopecurus myosuroides); assay: Test A postemergence, blackgrass; conditions: 0 to 100 scale
Description: as §1

[14] = system: galium (catchweed bedstraw, Galium aparine); assay: Test A postemergence, galium; conditions: 0 to 100 scale
Description: as §1

[15] = system: rice (Oryza sativa); assay: Test B flooded paddy test, rice; conditions: Flood, 250 g ai/ha; scale of 0 to 100
Protocol: (§2) Plant species in the flooded paddy test selected from rice (Oryza sativa), sedge, umbrella (small-flower umbrella sedge, Cyperus difformis), ducksalad (Heteranthera limosa), and barnyardgrass (Echinochloa crus-galli) were grown to the 2-leaf stage for testing. At the time of treatment, test pots were flooded to 3 cm above the soil surface, treated by application of test compounds directly to the paddy water, and then maintained at that water depth for the duration of the test. Treated plants and controls were maintained in a greenhouse for 13 to 15 d, after which time all species were compared to controls and visually evaluated. Plant response ratings, summarized in Table B, are based on a scale of 0 to 100 where 0 is no effect and 100 is complete control. A dash (—) response means no test result.

[16] = system: sedge, umbrella (small-flower umbrella sedge, Cyperus difformis); assay: Test B flooded paddy test, sedge, umbrella; conditions: Flood, 250 g ai/ha; scale of 0 to 100
Protocol: as §2

[17] = system: ducksalad (Heteranthera limosa); assay: Test B flooded paddy test, ducksalad; conditions: Flood, 250 g ai/ha; scale of 0 to 100
Protocol: as §2

[18] = system: barnyardgrass (Echinochloa crus-galli); assay: Test B flooded paddy test, barnyardgrass; conditions: Flood, 250 g ai/ha; scale of 0 to 100, 0 no effect, 100 complete control
Protocol: as §2

[19] = system: Foxtail, Giant; assay: Test A postemergence, foxtail, giant; conditions: 0 to 100 scale
[20] = system: Foxtail, Giant; assay: Test A preemergence, foxtail, giant; conditions: 0 to 100 scale
[21] = 125 g ai/ha, 0 no effect, 100 complete control

Structure (SMILES) | Plant response rating, Barnyardgrass ([1]; 31 g ai/ha) | Plant response rating, Barnyardgrass ([1]; 125 g ai/ha) | Plant response rating, Kochia ([2]; 31 g ai/ha) | Plant response rating, Kochia ([2]; 125 g ai/ha) | Plant response rating, Ragweed ([3]; 31 g ai/ha) | Plant response rating, Ragweed ([3]; 125 g ai/ha) | Plant response rating, Ryegrass, Italian ([4]; 31 g ai/ha) | Plant response rating, Ryegrass, Italian ([4]; 125 g ai/ha) | Plant response rating, Pigweed ([5]; 31 g ai/ha) | Plant response rating, Pigweed ([5]; 125 g ai/ha) | Plant response rating, Barnyardgrass ([6]; 31 g ai/ha) | Plant response rating, Barnyardgrass [6, 21] | Plant response rating, Kochia ([7]; 31 g ai/ha) | Plant response rating, Kochia ([7]; 125 g ai/ha) | Plant response rating, Ragweed ([8]; 31 g ai/ha) | Plant response rating, Ragweed ([8]; 125 g ai/ha) | Plant response rating, Ryegrass, Italian ([9]; 31 g ai/ha) | Plant response rating, Ryegrass, Italian ([9]; 125 g ai/ha) | Plant response rating, Pigweed ([10]; 31 g ai/ha) | Plant response rating, Pigweed ([10]; 125 g ai/ha) | also measured
CC(=O)Oc1c(Cl)nn(C)c(=O)c1-c1c2ccccc2cc2ccccc12 [Compound 6] | 0 | 0 | 0 | 0 | 40 | 100 | 30 | 30 | 80 | 100 | 0 | 10 | 0 | 20 | 90 | 90 | 20 | 70 | 100 | 100 | Plant response rating, Wheat ([11]; 31 g ai/ha): 10; Plant response rating, Wheat ([11]; 125 g ai/ha): 10; Plant response rating, Corn ([12]; 31 g ai/ha): 0; Plant response rating, Corn ([12]; 125 g ai/ha): 0; Plant response rating, Blackgrass ([13]; 31 g ai/ha): 0; Plant response rating, Blackgrass ([13]; 125 g ai/ha): 0; Plant response rating, Galium ([14]; 31 g ai/ha): 80; Plant response rating, Galium ([14]; 125 g ai/ha): 100; Plant response rating, Rice [15]: 0; Plant response rating, Sedge, Umbrella [16]: 95; Plant response rating, Ducksalad [17]: 85; Plant response rating, Barnyardgrass [18]: 0; Plant response rating, Foxtail, Giant ([19]; 31 g ai/ha): 0; Plant response rating, Foxtail, Giant ([19]; 125 g ai/ha): 20; Plant response rating, Foxtail, Giant ([20]; 31 g ai/ha): 0; Plant response rating, Foxtail, Giant ([20]; 125 g ai/ha): 10
Cc1nn(C)c(=O)c(-c2c3ccccc3cc3ccccc23)c1O [Compound 8] | 0 | 10 | 0 | 0 | 40 | 90 | 10 | 50 | 100 | 100 | 10 | 50 | 0 | 10 | 90 | 90 | 90 | 100 | 90 | 100 | Plant response rating, Wheat ([11]; 31 g ai/ha): 0; Plant response rating, Wheat ([11]; 125 g ai/ha): 0; Plant response rating, Corn ([12]; 31 g ai/ha): 10; Plant response rating, Corn ([12]; 125 g ai/ha): 10; Plant response rating, Blackgrass ([13]; 31 g ai/ha): 0; Plant response rating, Blackgrass ([13]; 125 g ai/ha): 30; Plant response rating, Galium ([14]; 31 g ai/ha): 80; Plant response rating, Galium ([14]; 125 g ai/ha): 90; Plant response rating, Rice [15]: 15; Plant response rating, Sedge, Umbrella [16]: 90; Plant response rating, Ducksalad [17]: 90; Plant response rating, Barnyardgrass [18]: 15; Plant response rating, Foxtail, Giant ([19]; 31 g ai/ha): 10; Plant response rating, Foxtail, Giant ([19]; 125 g ai/ha): 60; Plant response rating, Foxtail, Giant ([20]; 31 g ai/ha): 0; Plant response rating, Foxtail, Giant ([20]; 125 g ai/ha): 10
C1COCCN1.Cn1nc(Cl)c(O)c(-c2c3ccccc3cc3ccccc23)c1=O [Compound 7] | 0 | 0 | 0 | 0 | 0 | 40 | 0 | 0 | 60 | 100 | 0 | 0 | 0 | 10 | 90 | 100 | 10 | 60 | 100 | 100 | Plant response rating, Wheat ([11]; 31 g ai/ha): 0; Plant response rating, Wheat ([11]; 125 g ai/ha): 0; Plant response rating, Corn ([12]; 31 g ai/ha): 10; Plant response rating, Corn ([12]; 125 g ai/ha): 10; Plant response rating, Blackgrass ([13]; 31 g ai/ha): 0; Plant response rating, Blackgrass ([13]; 125 g ai/ha): 10; Plant response rating, Galium ([14]; 31 g ai/ha): 70; Plant response rating, Galium ([14]; 125 g ai/ha): 100; Plant response rating, Rice [15]: 0; Plant response rating, Sedge, Umbrella [16]: 100; Plant response rating, Ducksalad [17]: 100; Plant response rating, Barnyardgrass [18]: 0; Plant response rating, Foxtail, Giant ([19]; 31 g ai/ha): 0; Plant response rating, Foxtail, Giant ([19]; 125 g ai/ha): 10; Plant response rating, Foxtail, Giant ([20]; 31 g ai/ha): 0; Plant response rating, Foxtail, Giant ([20]; 125 g ai/ha): 0
